Data published in US8658604B2, “Template-fixed beta-hairpin peptidomimetics with protease inhibitory activity” (Polyphor Ltd, priority 2005, dated 2014).
Like-named read-outs stand apart in the source and are kept apart here. Where a SMILES comes first, the peptide text is derived from it.

How the values were obtained:
HELA cells (Acc57) = experiment: Cytotoxicity assay (MTT reduction), HELA cells; assay type: cell-based; details: Hela cells
In short: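 HeLa cells were grown for 24 h, then exposed to peptides at 12.5, 25 and 50 μM in triplicate for 48 h at 37 °C. MTT reduction was read at 595 nm and growth % calculated relative to time-zero wells. LC50 interpolated by linear trend at −50% growth, GI50 at 50%.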

[1] = tested on: human red blood cells (hRBC); experiment: Hemolysis
Procedure: The peptides were tested for their hemolytic activity against human red blood cells (hRBC). Fresh hRBC were washed three times with phosphate buffered saline (PBS) by centrifugation for 10 min at 2000×g. Peptides at a concentration of 100 μM were incubated with 20% v/v hRBC for 1 hour at 37° C. The final erythrocyte concentration was approximately 0.9×10^9 cells per ml. A value of 0% and, respectively, 100% cell lysis was determined by incubation of the hRBC in the presence of PBS alone and, respectively, 0.1% Triton X-100 in H2O. […] The 100% lysis value (OD540H20) gave an OD540 of approximately 1.3-1.8. Percent hemolysis was calculated as follows: (OD540peptide/OD540H20)×100%.

[2] = molecular target: Trypsin, from human pancreas (Homo sapiens, UniProt P07477); experiment: Enzymatic assay, trypsin; details: at 100 μM
Chymase, from human skin = molecular target: T1, Chymase, from human skin (Homo sapiens, UniProt P23946); experiment: Enzymatic assay, chymase
T1 sequence (P23946 22-247): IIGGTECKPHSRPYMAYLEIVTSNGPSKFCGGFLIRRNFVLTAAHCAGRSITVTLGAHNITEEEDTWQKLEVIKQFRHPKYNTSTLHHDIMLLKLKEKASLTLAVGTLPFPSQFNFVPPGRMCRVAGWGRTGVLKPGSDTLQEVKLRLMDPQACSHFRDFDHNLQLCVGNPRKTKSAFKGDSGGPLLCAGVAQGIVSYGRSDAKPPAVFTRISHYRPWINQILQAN

[3] = molecular target: T2, Elastase from human neutrophils (Homo sapiens, UniProt P08246); experiment: Enzymatic assay, elastase
T2 sequence (P08246 30-267): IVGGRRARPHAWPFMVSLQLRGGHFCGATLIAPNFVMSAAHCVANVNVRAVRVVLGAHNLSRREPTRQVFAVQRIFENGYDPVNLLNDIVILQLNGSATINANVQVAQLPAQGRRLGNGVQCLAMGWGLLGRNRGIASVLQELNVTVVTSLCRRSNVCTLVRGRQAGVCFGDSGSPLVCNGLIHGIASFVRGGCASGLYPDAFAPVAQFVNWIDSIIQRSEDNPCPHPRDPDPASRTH

[4] = molecular target: Thrombin, from Human Plasma (Homo sapiens, UniProt P00734); experiment: Enzymatic assay, thrombin
[5] = tested on: Tryptase, from human lung; experiment: Enzymatic assay, tryptase; details: at 100 μM
[6] = molecular target: Urokinase from human urine (Homo sapiens, UniProt P00749); experiment: Enzymatic assay, urokinase
[7] = molecular target: T3, CathepsinG, from human neutrophils (Homo sapiens, UniProt P08311); experiment: Enzymatic assay, cathepsin G
T3 sequence (P08311 21-244): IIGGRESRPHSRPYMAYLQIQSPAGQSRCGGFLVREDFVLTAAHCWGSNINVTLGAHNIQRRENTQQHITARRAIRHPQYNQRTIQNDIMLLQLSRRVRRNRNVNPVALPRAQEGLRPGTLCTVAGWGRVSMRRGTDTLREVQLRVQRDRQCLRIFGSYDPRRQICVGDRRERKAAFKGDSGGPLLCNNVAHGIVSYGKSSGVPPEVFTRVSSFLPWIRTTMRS

[8] = molecular target: Chymotrypsin, from human pancreas (Homo sapiens, UniProt P17538); experiment: Enzymatic assay, chymotrypsin; details: at 100 μM
Chain of Chymotrypsin, from human pancreas (P17538 19-263): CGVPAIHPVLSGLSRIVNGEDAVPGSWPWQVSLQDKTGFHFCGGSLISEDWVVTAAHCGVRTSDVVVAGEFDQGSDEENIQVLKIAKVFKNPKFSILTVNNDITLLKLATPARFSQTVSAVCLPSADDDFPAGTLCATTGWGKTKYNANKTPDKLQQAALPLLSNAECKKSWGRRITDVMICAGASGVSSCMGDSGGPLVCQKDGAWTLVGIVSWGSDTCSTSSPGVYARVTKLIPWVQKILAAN

[9] = molecular target: Coagulation Factor Xa, from uman plasma (Homo sapiens, UniProt P00742); experiment: Enzymatic assay, coagulation factor Xa
Chain of Coagulation Factor Xa, from uman plasma (P00742 235-488 limits assumed): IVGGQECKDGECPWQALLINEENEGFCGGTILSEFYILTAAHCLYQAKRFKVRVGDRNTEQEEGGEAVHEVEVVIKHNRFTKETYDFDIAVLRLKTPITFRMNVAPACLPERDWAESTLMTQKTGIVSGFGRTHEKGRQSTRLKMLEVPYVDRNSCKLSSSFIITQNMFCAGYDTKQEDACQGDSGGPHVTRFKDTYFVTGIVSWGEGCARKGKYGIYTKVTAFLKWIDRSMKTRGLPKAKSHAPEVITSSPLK
Chain of Coagulation Factor Xa, from uman plasma (P00742 41-179 limits assumed): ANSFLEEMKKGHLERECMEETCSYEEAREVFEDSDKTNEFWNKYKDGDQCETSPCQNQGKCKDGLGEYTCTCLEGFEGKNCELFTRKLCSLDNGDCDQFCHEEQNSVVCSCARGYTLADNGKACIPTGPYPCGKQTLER

SMILES	Cytotoxicity LC50/GI50 Hela cells (HELA cells (Acc57)) [µM]	Hemolysis at 100 μM % [1] [%]	Trypsin at 100 μM % [2] [%]	Chymase at 100 μM % (Chymase, from human skin) [%]	IC50 ([3]; Elastase IC50) [µM]	Thrombin at 100 μM % [4] [%]	Tryptase at 100 μM % [5] [%]	Urokinase at 100 μM % [6] [%]	IC50 ([7]; Cathepsin G IC50) [µM]	Chymotrypsin at 100 μM % [8] [%]	FXa at 100 μM % [9] [%]	IC50 ([3]; read-out: Elastase IC50) [µM]	IC50 ([7]; read-out: Cathepsin G IC50) [µM]
CC[C@H](C)[C@@H]1NC(=O)[C@@H]2CCCN2C(=O)[C@@H]2CCCN2C(=O)[C@H](CC(=O)O)NC(=O)[C@H](CO)NC(=O)[C@H](CCCCN)NC(=O)[C@H]([C@@H](C)O)NC(=O)[C@@H]2CSSC[C@H](NC1=O)C(=O)N[C@@H](CC(N)=O)C(=O)N1CCC[C@@H]1C(=O)N1CCC[C@H]1C(=O)N[C@@H](Cc1ccccc1)C(=O)N2 [Ex. 3] (HELM PEPTIDE1{F.C.T.K.S.D.P.P.I.C.N.[dP].P}$PEPTIDE1,PEPTIDE1,2:R3-10:R3|PEPTIDE1,PEPTIDE1,1:R1-13:R2$$$V2.0)	100	0	92	1	> 100	0	68	4	0.051	0	4	–	–
CC[C@H](C)[C@@H]1NC(=O)[C@@H]2CCCN2C(=O)[C@@H]2CCCN2C(=O)[C@H](CC(=O)O)NC(=O)[C@H](CO)NC(=O)[C@H](CCCCN)NC(=O)[C@H]([C@@H](C)O)NC(=O)[C@@H]2CSSC[C@H](NC1=O)C(=O)N[C@@H](CO)C(=O)N1CCC[C@@H]1C(=O)N1CCC[C@H]1C(=O)N[C@@H](Cc1ccccc1)C(=O)N2 [Ex. 4] (HELM PEPTIDE1{F.C.T.K.S.D.P.P.I.C.S.[dP].P}$PEPTIDE1,PEPTIDE1,2:R3-10:R3|PEPTIDE1,PEPTIDE1,1:R1-13:R2$$$V2.0)	100	0	96	0	> 100	0	0	5.4	0.091	1.8	2.4	–	–
C[C@@H](O)[C@@H]1NC(=O)[C@@H]2CSSC[C@H](NC(=O)[C@H](CC3CCCCC3)NC(=O)[C@@H]3CCCN3C(=O)[C@@H]3CCCN3C(=O)[C@H](CC(=O)O)NC(=O)[C@H](CO)NC(=O)[C@H](CCCCN)NC1=O)C(=O)N[C@@H](CO)C(=O)N1CCC[C@@H]1C(=O)N1CCC[C@H]1C(=O)N[C@@H](Cc1ccccc1)C(=O)N2 [Ex. 16] (HELM PEPTIDE1{F.C.T.K.S.D.P.P.[Cha].C.S.[dP].P}$PEPTIDE1,PEPTIDE1,2:R3-10:R3|PEPTIDE1,PEPTIDE1,1:R1-13:R2$$$V2.0)	94	0.1	90.0	12.9	> 100	–	–	3.2	0.066	17.9	–	–	–
CC[C@H](C)[C@@H]1NC(=O)[C@@H]2CCCN2C(=O)[C@H]2CCCN2C(=O)[C@H](CCCNC(=N)N)NC(=O)[C@@H]2CSSC[C@H](NC1=O)C(=O)N[C@@H]([C@@H](C)O)C(=O)N[C@@H](CCCCN)C(=O)N[C@@H](CO)C(=O)N[C@@H](CC(=O)O)C(=O)N1CCC[C@H]1C(=O)N1CCC[C@H]1C(=O)N[C@@H](CC1CCCCC1)C(=O)N2 [Ex. 20] (HELM PEPTIDE1{I.C.T.K.S.D.P.P.[Cha].C.R.[dP].P}$PEPTIDE1,PEPTIDE1,2:R3-10:R3|PEPTIDE1,PEPTIDE1,1:R1-13:R2$$$V2.0)	100	0	97.0	44.1	> 100	28	–	6.7	0.048	0	25	–	–
CC[C@H](C)[C@@H]1NC(=O)[C@@H]2CCCN2C(=O)[C@@H]2CCCN2C(=O)[C@H](CC(=O)O)NC(=O)[C@H](CO)NC(=O)[C@H](CCCCN)NC(=O)[C@H]([C@@H](C)O)NC(=O)[C@@H]2CSSC[C@H](NC1=O)C(=O)N[C@@H](CC(N)=O)C(=O)N1CCC[C@@H]1C(=O)N1CCC[C@H]1C(=O)N[C@@H](C1CCCCC1)C(=O)N2 [Ex. 37] (HELM PEPTIDE1{[O=C([C@@H](N[*:1])C1CCCCC1)[*:2]].C.T.K.S.D.P.P.I.C.N.[dP].P}$PEPTIDE1,PEPTIDE1,2:R3-10:R3|PEPTIDE1,PEPTIDE1,1:R1-13:R2$$$V2.0)	92	0.1	–	–	–	–	56	5	0.035	–	–	–	–
CCCC[C@@H]1NC(=O)[C@@H]2CCCN2C(=O)[C@H]2CCCN2C(=O)[C@H]([C@@H](C)O)NC(=O)[C@@H]2CSSC[C@H](NC1=O)C(=O)N[C@@H]([C@@H](C)O)C(=O)N[C@@H](CCCCN)C(=O)N[C@@H](CO)C(=O)N[C@@H](CC(=O)O)C(=O)N1CCC[C@H]1C(=O)N1CCC[C@H]1C(=O)N[C@@H]([C@@H](C)CC)C(=O)N2 [Ex. 42] (HELM PEPTIDE1{[Nle].C.T.K.S.D.P.P.I.C.T.[dP].P}$PEPTIDE1,PEPTIDE1,2:R3-10:R3|PEPTIDE1,PEPTIDE1,1:R1-13:R2$$$V2.0)	87	0	–	–	–	–	0	7	0.046	–	–	–	–
CC[C@H](C)[C@@H]1NC(=O)[C@@H]2CCCN2C(=O)[C@H]2CCCN2C(=O)[C@H](CCCNC(=N)N)NC(=O)[C@@H]2CSSC[C@H](NC1=O)C(=O)N[C@@H]([C@@H](C)O)C(=O)N[C@@H](CCCCN)C(=O)N[C@@H](CO)C(=O)N[C@@H](CC(=O)O)C(=O)N1CCC[C@H]1C(=O)N1CCC[C@H]1C(=O)N[C@@H](CC1CCCCC1)C(=O)N2 [Ex. 58] (HELM PEPTIDE1{I.C.T.K.S.D.P.P.[Cha].C.R.[dP].P}$PEPTIDE1,PEPTIDE1,2:R3-10:R3|PEPTIDE1,PEPTIDE1,1:R1-13:R2$$$V2.0)	100	0	97	44.1	–	28	–	6.7	0.0475	0	25	> 100	–
CCCC[C@@H]1NC(=O)[C@H]([C@@H](C)O)NC(=O)[C@@H]2CSSC[C@H](NC(=O)[C@H]([C@@H](C)CC)NC(=O)[C@@H]3CCCN3C(=O)[C@@H]3CCCN3C(=O)[C@H](CC(=O)O)NC(=O)[C@H](CO)NC1=O)C(=O)N[C@@H](CCCNC(=N)N)C(=O)N1CCC[C@@H]1C(=O)N1CCC[C@H]1C(=O)N[C@@H]([C@@H](C)CC)C(=O)N2 [Ex. 59] (HELM PEPTIDE1{I.C.T.[Nle].S.D.P.P.I.C.R.[dP].P}$PEPTIDE1,PEPTIDE1,2:R3-10:R3|PEPTIDE1,PEPTIDE1,1:R1-13:R2$$$V2.0)	8	0	84	98.8	–	–	3.8	5.7	–	0	–	> 100	0.055
C[C@@H](O)[C@@H]1NC(=O)[C@@H]2CSSC[C@H](NC(=O)[C@H](Cc3ccc(O)cc3)NC(=O)[C@@H]3CCCN3C(=O)[C@@H]3CCCN3C(=O)[C@H](CC(=O)O)NC(=O)[C@H](CO)NC(=O)[C@H](CCCCN)NC1=O)C(=O)N[C@@H](Cc1ccc(O)cc1)C(=O)N1CCC[C@@H]1C(=O)N1CCC[C@H]1C(=O)N[C@@H](C1CCCCC1)C(=O)N2 [Ex. 65] (HELM PEPTIDE1{[O=C([C@@H](N[*:1])C1CCCCC1)[*:2]].C.T.K.S.D.P.P.Y.C.Y.[dP].P}$PEPTIDE1,PEPTIDE1,2:R3-10:R3|PEPTIDE1,PEPTIDE1,1:R1-13:R2$$$V2.0)	84	0	–	–	–	–	57	1	0.047	–	–	–	–
